pIC50: −log10 of the molar value.
Assays:
[1] = biological target: BRD4(BD1) (Homo sapiens (Human), UniProt O60885); assay: In vitro bromodomain inhibition assay (AlphaLISA); type: binding; details: His-tagged BRD4 BD1 200 nM, biotinylated H4-tetraacetyl peptide 200 nM
Procedure: a) In Vitro Bromodomain Inhibition Assay
To measure activity of bromodomain inhibitors, a His-epitope tagged BRD4 BD149-170 is purchased from BPS Bioscience. BRD4 binding and inhibition is assessed by monitoring the engagement of biotinylated H4-tetraacetyl peptide (H4K5/8/12/16; AnaSpec #64989-025) with the target using the AlphaLISA technology (Perkin-Elmer). Specifically, in a 384 well OptiPlate, BRD4(BD1) (200 nM final) is pre-incubated with either DMSO (final 1.0% DMSO) or a compound dilution series in DMSO. All reagents are diluted in assay buffer containing 50 mM HEPES (pH 7.4), 100 mM NaCl, 0.1% (w/v) BSA, and 0.05% (w/v) CHAPS. After a 30 min incubation at rt, H4 peptide is added (200 nM final) and the reaction is incubated an additional 30 min at rt. Alpha streptavidin donor beads and AlphaLISA nickel chelate acceptor beads are then added to a final concentration of 10 μg/mL each. After one hour, equilibration plates are read on an Envision instrument and IC50s calculated using a four parameter non-linear curve fit (results are shown in Table 2).

[2] = system: human C-Myc transcription in MV-4-11 cells; assay: Transcription of human C-Myc in human leukemic MV-4-11 cells (QuantiGene 2.0); type: cell-based; details: inhibition of C-Myc mRNA, 4 hours treatment
Procedure: b) Transcription of Human C-Myc in Human Leukemic MV-4-11 Cells:
The effect of compounds on transcription of human C-Myc gene is monitored in human B-myelomonocytic leukemia cell line MV-4-11 (from American Type Culture Collection (ATCC), Manassas, Va., USA) using QuantiGene 2.0 assay kit (Affymetrix, Santa Clara, Calif., USA).
Typically, 8,000 MV-4-11 cells are plated in sterile 96-well plates (Costar #3598 from Fisher Scientific Canada, Ottawa, Ontario, Canada) in Iscove's medium supplemented with 10% fetal bovine serum, glutamine (2 mM), and penicillin (100 I.U.) and streptomycin (100 μg/mL) (all from Wisent Inc., St. Bruno, Quebec, Canada). Compounds are dissolved in DMSO at 30 mM. A series of 1:3 dilutions are first made in DMSO, and further 1:100 dilutions are made in serum-containing cell culture media. The final concentration of DMSO is 0.1% in cell culture media. After cells are treated with various concentrations of test compound for 4 hours, cells are lysed using Quantigene 2.0 sample processing kit (#QS0100). C-Myc mRNA is detected using a QuantiGene 2.0 assay kit (#QS0009) with gene-specific probe to human C-Myc (#SA-50182) following the manufacturer's recommendations. Luminescene signals are read on Flexstation II microplate reader (Molecular Devices, Sunnyvale, Calif., USA).

**Q.** How did the pIC50 [1] turn out when Cc1cc(-c2cc3c(c(NCc4ccccn4)c2)NC(=O)CC3)cn(C)c1=O [Compound 12, 6-(1,5-dimethyl-6-oxo-3-pyridyl)-8-(2-pyridylmethylamino)-3,4-dihydro-1H-quinolin-2-one] was run?
**A.** 6.96

**Q.** And the pIC50 ([2]; Homo sapiens, MV4-11, 4 h)?
**A.** 7.05

**Q.** How did the pIC50 [1] turn out when Cc1cc(-c2ccc3c(c2Cc2ccccc2)CCC(=O)N3C)cn(C)c1=O [Compound 9, 5-benzyl-6-(1,5-dimethyl-6-oxo-3-pyridyl)-1-methyl-3,4-dihydroquinolin-2-one] was run?
**A.** 6.57

**Q.** And the pIC50 ([2]; Homo sapiens, MV4-11, 4 h)?
**A.** 6.59

**Q.** Which results are given for Cc1cc(-c2cc3c(c(OCc4ccccc4)c2)NC(=O)CC3)cn(C)c1=O [Compound 17, 8-(benzyloxy)-6-(1,5-dimethyl-6-oxo-1,6-dihydropyridin-3-yl)-3,4-dihydroquinolin-2(1H)-one]?
**A.** pIC50 [1]: 6.74; pIC50 ([2]; Homo sapiens, MV4-11, 4 h): 6.62

**Q.** How did the pIC50 [1] turn out when Cc1cc(-c2cc3c(c(NCc4ccccc4)c2)NC(=O)CC3)cn(C)c1=O [Compound 4, 8-(benzylamino)-6-(1,5-dimethyl-6-oxo-3-pyridyl)-3,4-dihydro-1H-quinolin-2-one] was run?
**A.** 6.55

**Q.** What about the pIC50 ([2]; Homo sapiens, MV4-11, 4 h) of the same compound?
**A.** 7.05

**Q.** How did the pIC50 [1] turn out when Cc1cc(-c2cc3c(c(Nc4cccnc4)c2)NC(=O)CC3)cn(C)c1=O [Compound 11, 6-(1,5-dimethyl-6-oxo-3-pyridyl)-8-(3-pyridylamino)-3,4-dihydro-1H-quinolin-2-one] was run?
**A.** 6.46

**Q.** What about the pIC50 ([2]; Homo sapiens, MV4-11, 4 h) of the same compound?
**A.** 5.67

**Q.** Cc1cc(-c2cc3c(c(Cc4ccccc4)c2)N(C)C(=O)CC3)cn(C)c1=O [Compound 2, 8-benzyl-6-(1,5-dimethyl-6-oxo-3-pyridyl)-1-methyl-3,4-dihydroquinolin-2-one] was tested. Which pIC50 [1] did it give?
**A.** 6.25

**Q.** And the pIC50 ([2]; Homo sapiens, MV4-11, 4 h)?
**A.** 6.68

**Q.** How did the pIC50 [1] turn out when Cc1cc(-c2cc3c(c(Nc4ccccc4)c2)NC(=O)CC3)cn(C)c1=O [Compound 3, 8-anilino-6-(1,5-dimethyl-6-oxo-3-pyridyl)-3,4-dihydro-1H-quinolin-2-one] was run?
**A.** 6.29

**Q.** What about the pIC50 ([2]; Homo sapiens, MV4-11, 4 h) of the same compound?
**A.** 6.24

**Q.** What does the source list for Cc1cc(-c2cc3c(c(NC4CCOCC4)c2)NC(=O)CC3)cn(C)c1=O [Compound 18, 6-(1,5-dimethyl-6-oxo-3-pyridyl)-8-(tetrahydropyran-4-ylamino)-3,4-dihydro-1H-quinolin-2-one]?
**A.** pIC50 [1]: 6.38; pIC50 ([2]; Homo sapiens, MV4-11, 4 h): 6.10

**Q.** Which results are given for Cc1cc(-c2cc3c(cc2Cc2ccccc2)NC(=O)CC3)cn(C)c1=O [Compound 8, 7-benzyl-6-(1,5-dimethyl-6-oxo-3-pyridyl)-3,4-dihydro-1H-quinolin-2-one]?
**A.** pIC50 [1]: 6.55; pIC50 ([2]; Homo sapiens, MV4-11, 4 h): 6.62

**Q.** Cc1cc(-c2cc3c(c(CNC4CCCC4)c2)NC(=O)CC3)cn(C)c1=O [Compound 19, 8-[(cyclopentylamino)methyl]-6-(1,5-dimethyl-6-oxo-3-pyridyl)-3,4-dihydro-1H-quinolin-2-one] was tested. Which pIC50 [1] did it give?
**A.** 6.15

**Q.** And the pIC50 ([2]; Homo sapiens, MV4-11, 4 h)?
**A.** 6.05

**Q.** Cc1cc(-c2ccc3c(c2Cc2ccccc2)CCC(=O)N3)cn(C)c1=O [Compound 7, 5-benzyl-6-(1,5-dimethyl-6-oxo-3-pyridyl)-3,4-dihydro-1H-quinolin-2-one] was tested. Which pIC50 [1] did it give?
**A.** 6.85

**Q.** And the pIC50 ([2]; Homo sapiens, MV4-11, 4 h)?
**A.** 7.05

**Q.** How did the pIC50 [1] turn out when Cc1cc(-c2cc3c(c(CN4CCCCC4)c2)NC(=O)CC3)cn(C)c1=O [Compound 13, 6-(1,5-dimethyl-6-oxo-3-pyridyl)-8-(1-piperidylmethyl)-3,4-dihydro-1H-quinolin-2-one] was run?
**A.** 5.89

**Q.** What about the pIC50 ([2]; Homo sapiens, MV4-11, 4 h) of the same compound?
**A.** 5.80

**Q.** What does the source list for Cc1cc(-c2cc3c(c(N(C)c4ccccc4)c2)NC(=O)CC3)cn(C)c1=O [Compound 14, 6-(1,5-dimethyl-6-oxo-3-pyridyl)-8-(N-methylanilino)-3,4-dihydro-1H-quinolin-2-one]?
**A.** pIC50 [1]: 6.46; pIC50 ([2]; Homo sapiens, MV4-11, 4 h): 6.72

**Q.** Cc1cc(-c2cc3c(cc2Cc2ccccc2)N(C)C(=O)CC3)cn(C)c1=O [Compound 10, 7-benzyl-6-(1,5-dimethyl-6-oxo-3-pyridyl)-1-methyl-3,4-dihydroquinolin-2-one] was tested. Which pIC50 [1] did it give?
**A.** 6.32

**Q.** And the pIC50 ([2]; Homo sapiens, MV4-11, 4 h)?
**A.** 6.60

**Q.** With Cc1cc(-c2cc3c(c(OC(C)c4cccnc4)c2)NC(=O)CC3)cn(C)c1=O (single isomer, unassigned) [Compound 92b, 6-(1,5-dimethyl-6-oxo-1,6-dihydropyridin-3-yl)-8-(1-(pyridin-3-yl)ethoxy)-3,4-dihydroquinolin-2(1H)-one] as the compound, how does the pIC50 [2] read?
**A.** 6.29

**Q.** Cc1cc(-c2cc3c(c(OC(C)c4cccnc4)c2)NC(=O)CC3)cn(C)c1=O (single isomer, unassigned) [Compound 92a, 6-(1,5-dimethyl-6-oxo-1,6-dihydropyridin-3-yl)-8-(1-(pyridin-3-yl)ethoxy)-3,4-dihydroquinolin-2(1H)-one] was tested. Which pIC50 [2] did it give?
**A.** 7.05

**Q.** How did the pIC50 [1] turn out when Cc1cc(-c2cc3c(c(NC4CCCCC4)c2)NC(=O)CC3)cn(C)c1=O [Compound 6, 8-(cyclohexylamino)-6-(1,5-dimethyl-6-oxo-3-pyridyl)-3,4-dihydro-1H-quinolin-2-one] was run?
**A.** 6.09

**Q.** What about the pIC50 ([2]; Homo sapiens, MV4-11, 4 h) of the same compound?
**A.** 6.12

**Q.** How did the pIC50 [1] turn out when Cc1cc(-c2cc3c(c(Cc4ccccc4)c2)NC(=O)CC3)cn(C)c1=O [Compound 1, 8-benzyl-6-(1,5-dimethyl-6-oxo-3-pyridyl)-3,4-dihydro-1H-quinolin-2-one] was run?
**A.** 6.39

**Q.** And the pIC50 ([2]; Homo sapiens, MV4-11, 4 h)?
**A.** 6.80

**Q.** Cc1cc(-c2cc3c(c(OC4CCCCC4)c2)NC(=O)CC3)cn(C)c1=O [Compound 16, 8-(cyclohexyloxy)-6-(1,5-dimethyl-6-oxo-1,6-dihydropyridin-3-yl)-3,4-dihydroquinolin-2(1H)-one] was tested. Which pIC50 ([2]; Homo sapiens, MV4-11, 4 h) did it give?
**A.** 6.28

**Q.** Cc1cc(-c2cc3c(c(COC4CCCC4)c2)NC(=O)CC3)cn(C)c1=O [Compound 21, 8-(cyclopentoxymethyl)-6-(1,5-dimethyl-6-oxo-3-pyridyl)-3,4-dihydro-1H-quinolin-2-one] was tested. Which pIC50 ([2]; Homo sapiens, MV4-11, 4 h) did it give?
**A.** 6.55

— patent US10501438B2, “Aryl-substituted dihydroquinolinones, their preparation and their use as pharmaceuticals” (NEOMED Institute, priority 2015, dated 2019)
